Values quoted from earlier work in US6432967B1 (Mayo Foundation for Medical Education & Research, priority 1995, dated 2002).

Details: in vivo

fecal excretion: approximately 25%
Compound: Nc1ccc(O)c(C(=O)O)c1 [5-ASA, 5-aminosalicylate]
